Reference: patent US10894087B2, “Multi-arm polymeric prodrug conjugates of cabazitaxel-based compounds” (Nektar Therapeutics, priority 2010, dated 2021)
Like-named read-outs stand apart in the source and are kept apart here.

Tests used:
[1] = test system: H460 non-small cell lung cancer (NSCLC) implants; settings: for % TGD / Median TTE (Median Time to Endpoint) / TGD (tumor growth delay compared to vehicle) / CR (Number of Complete Regressions) / Deaths / PR (Number of Partial Regressions) / TFS (Number of Tumor Free Survivors) / MTV (Median Tumor Volume) / BW Nadir (d), day of nadir: iv; for % TGD / Median TTE (Median Time to Endpoint) / TGD (tumor growth delay compared to vehicle) / CR (Number of Complete Regressions) / Deaths / PR (Number of Partial Regressions) / TFS (Number of Tumor Free Survivors) / MTV (Median Tumor Volume): qwk x 3; for CR (Number of Complete Regressions) / Deaths / PR (Number of Partial Regressions) / TFS (Number of Tumor Free Survivors): N=10; for BW Nadir (d), day of nadir: mouse, in vivo
Experimental: Purpose. Studies were conducted to assess the growth inhibitory effects of PEGylated-conjugates of cabazitaxel on H460 non-small cell lung cancer (NSCLC) implants in athymic nu/nu mice.
Experimental plan. These studies were conducted using routine methods and materials that are familiar to those skilled in the art. Briefly, 8 to 12 week old female nu/nu mice were injected subcutaneously in the flank with 1×10^7 H460 tumor cells in 0.2 mL sterile buffer. […] Animals received three intravenous doses of test article at one week intervals beginning on day 1. Cabazitaxel solutions were prepared in D5W containing 5% Tween 80:10% ethanol. PEG-cabazitaxel conjugates were prepared in D5W. The administration volume for all test articles was 10 mL/kg. The test doses were selected to represent the MTD and ½ the MTD for each test compound. The tables list the actual mg/kg for each test article and the corresponding cabazitaxel equivalent calculated based on the weight-percent cabazitaxel content for each PEGylated conjugate.
Animals were weighed on days 1-5, 7, 9, 11, 13 then biweekly until the end of the study. Tumor sizes were measured using calipers biweekly throughout the study and tumor volumes were calculated using the formula for an ellipsoid sphere: L×W^2/2=mm^3, where L and W are the major axis dimensions of the tumor in mm. Additional parameters that were monitored were the number of non-specific deaths, number of partial and complete tumor regressions, number of tumor-free survivors, and the time required for individual animals' tumors to reach 2000 mm^3. The median time for a tumor to reach 2000 mm^3 in the treatment groups (T) and control group (C) was used to calculate of the overall delay in the growth of the median tumor (TGD). Animals were monitored individually until reaching the experimental endpoint: tumor size of 2000 mm^3 or 45 days, whichever came first. […] When the study endpoint was reached, the animals were euthanized.

[2] = Maximum tolerated dose (MTD) study of PEGylated conjugates of cabazitaxel in athymic mice; type: in vivo, female athymic nu/nu mice; settings: qw x 3, iv; for Treatment-Related Deaths: N=5
Experimental: Purpose. This study was performed to determine appropriate doses of each compound for tumor xenograft studies. In those studies, it is desirable to administer the maximum dose of test compound that will not cause excessive loss of body weight. In general, loss of ˜15% of the initial body weight of the animal is typically the maximum desired.
Experimental procedure. MTD for 4-arm-conjugated to cabazitaxel were determined in female athymic nu/nu mice using standard methods. Briefly, 8-12 week old mice were administered test compounds or cabazitaxel intravenously at one week intervals for a total of three doses per mouse (qw×3, iv) as shown in Tables 1 and 2. For all PEG-conjugated test compounds, the doses of both the conjugate and released cabazitaxel, calculated from the cabazitaxel content of the respective conjugate, are shown. […] PEG-cabazitaxel conjugates were prepared in D5W. […] Mice were observed daily for clinical signs and body weights were recorded on days 1-5 and then biweekly until the end of study. All procedures were conducted in compliance with IACUC requirements. […] For any group with two measurements of mean body weight loss of greater than 20%, dosing was stopped and recovery was allowed. Within a group with greater than 20% mean weight loss, individual animals greater than 30% body weight loss were euthanized. Compound dosing was terminated for any group in which mean weight loss exceeded 20% or >10% of animals died. Moribund animals were euthanized and all animals were euthanized at end of study (day 30).
Results. The results for the study MTD “20K Conjugates” are summarized in Table 3 and FIG. 1 while the results for the MTD “30K and 40K Conjugates” study are summarized Table 4 and FIG. 2. […] It should be noted that this is not meant to be a definitive MTD, but is simply a guide to select an appropriate dose for conducting tumor xenograft studies using this administration route and schedule. Note too, that these MTD are given as cabazitaxel equivalents. The actual dose of each conjugate must be corrected for the wt % of cabazitaxel in that specific conjugate.

[3] = mainly by the CYP3A4/5 isozyme; cited from earlier work
[4] = 20K conjugate xenograft study, 12.5 mg/kg cabazitaxel eq.
[5] = 20K conjugate xenograft study, 25 mg/kg cabazitaxel eq.
[6] = MTD study 20K conjugates, 15 mg/kg cabazitaxel eq.
[7] = MTD study 20K conjugates, 30 mg/kg cabazitaxel eq.
[8] = 20K conjugate xenograft study, 15 mg/kg cabazitaxel eq.
[9] = 20K conjugate xenograft study, 30 mg/kg cabazitaxel eq.
[10] = 30K and 40K conjugate xenograft study, 15 mg/kg cabazitaxel eq.
[11] = 30K and 40K conjugate xenograft study, 30 mg/kg cabazitaxel eq.
[12] = MTD study 30K and 40K conjugates, 30 mg/kg cabazitaxel eq.

## 4-ARM-PEG20K-Butanoate-Linked Cabazitaxel Conjugate [4-arm-PEG20K-BA-Cabazitaxel]
[1]; 20K conjugate xenograft study
  Tumor growth inhibition compared with cabazitaxel and the other conjugates (in words): did not provide greater tumor growth inhibition than either cabazitaxel or the other PEG-cabazitaxel conjugates tested in this study
[1]; [4]
  % TGD: 36%
  Median TTE (Median Time to Endpoint): 25.3 days
  TGD (tumor growth delay compared to vehicle): 6.7 days
  CR (Number of Complete Regressions): 0
  Deaths: 0
  PR (Number of Partial Regressions): 0
  TFS (Number of Tumor Free Survivors): 0
[1]; [5]
  % TGD: 112%
  Median TTE (Median Time to Endpoint): 39.3 days
  TGD (tumor growth delay compared to vehicle): 20.8 days
  CR (Number of Complete Regressions): 0
  Deaths: 0
  PR (Number of Partial Regressions): 0
  TFS (Number of Tumor Free Survivors): 0
[2]; MTD study 20K conjugates, 7.5 mg/kg cabazitaxel eq.
  Treatment-Related Deaths: 0
[2]; [6]
  BW Nadir: −1.3%
  BW Nadir (day): 2 days
  Treatment-Related Deaths: 0
[2]; [7]
  BW Nadir: −16.6%
  BW Nadir (day): 20 days
  Treatment-Related Deaths: 0
[2]; athymic nu/nu mice, guide value, not a definitive MTD
  Estimated MTD, cabazitaxel equivalents: 25 mg/kg

## CO[C@H]1C(=O)[C@]2(C)[C@@H](OC)C[C@H]3OC[C@@]3(OC(C)=O)[C@H]2[C@H](OC(=O)c2ccccc2)[C@]2(O)C[C@H](OC(=O)[C@H](O)[C@@H](NC(=O)OC(C)(C)C)c3ccccc3)C(C)=C1C2(C)C [Cabazitaxel, (2α,5β,7β,10β,13α-4-acetoxy-13-({(2R,3S)-3-[(tertbutoxycarbonyl)amino]-2-hydroxy-3-phenylpropanoyl}oxy)-1-hydroxy-7,10-dimethoxy-9-oxo-5,20-epoxytax-11-en-2-yl benzoate]
[3]
  Extent metabolized in the liver: > 95%
[1]; [8]
  % TGD: 52%
  MTV (Median Tumor Volume): 1764 mm^3
  Median TTE (Median Time to Endpoint): 28.1 days
  TGD (tumor growth delay compared to vehicle): 9.6 days
  CR (Number of Complete Regressions): 0
  Deaths: 0
  PR (Number of Partial Regressions): 0
  TFS (Number of Tumor Free Survivors): 0
[1]; [9]
  % TGD: 154%
  MTV (Median Tumor Volume): 918 mm^3
  TGD (tumor growth delay compared to vehicle): 28.5 days
  CR (Number of Complete Regressions): 0
  Deaths: 0
  PR (Number of Partial Regressions): 3
  TFS (Number of Tumor Free Survivors): 0
[1]; [10]
  % TGD: 87%
  Median TTE (Median Time to Endpoint): 27.9 days
  TGD (tumor growth delay compared to vehicle): 13 days
  CR (Number of Complete Regressions): 0
  Deaths: 0
  PR (Number of Partial Regressions): 0
  TFS (Number of Tumor Free Survivors): 0
[1]; [11]
  % TGD: 208%
  MTV (Median Tumor Volume): 994 mm^3
  TGD (tumor growth delay compared to vehicle): 31.1 days
  CR (Number of Complete Regressions): 0
  Deaths: 0
  PR (Number of Partial Regressions): 5
  TFS (Number of Tumor Free Survivors): 0
[1]; 15 mg/kg
  BW Nadir (d), day of nadir: (22) d
[1]; 30 mg/kg
  BW Nadir (d), day of nadir: (22) d
[2]; [7]
  BW Nadir: −15.4%
  BW Nadir (day): 20 days
  Treatment-Related Deaths: 0
[2]; [12]
  BW Nadir: −6.8%
  BW Nadir (day): 21 days
  Treatment-Related Deaths: 0
